# Assay results: US20020111274A1, “1-alkyl-3-[1-(substituted phenyl) benzotriazol-6-yl] uracils” (BASF Aktiengesellschaft, priority 2000, published 2002)
# Experiments:
# Design in all cases: scale not given here
# ZEAMX Corn, Field [1] = assay: Postemergence herbicidal evaluation, ZEAMX; assay type: in vivo, Zea mays, L. (Sammel-Bezeichnung); conditions: postemergence spray, rated about two-three weeks after treatment
# Outline: (§1)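 Plants are raised for roughly two weeks, then treated postemergence with compound dispersed in acetone/water (80/20) plus 1.0% seed oil adjuvant, at rates of about 0.006 kg to 0.400 kg per hectare. After greenhouse care, damage is scored two to three weeks later.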
# ABUTH Velvetleaf = assay: Postemergence herbicidal evaluation, ABUTH; assay type: in vivo, Abutilon theophrasti, Medic.; conditions: postemergence spray, rated about two-three weeks after treatment
# Outline: as §1
# AMBEL Ragweed, Common [2] = assay: Preemergence herbicidal evaluation, AMBEL; assay type: in vivo, Ambrosia artemisifolia, L.; conditions: preemergence
# Outline: (§2)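 Compound applied preemergence as an aqueous acetone spray onto freshly planted cups, dose equivalent approx. 0.013 to 0.800 kg/ha. Evaluation by rating at weeks 4–5.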
# GALAP Galium [3] = assay: Preemergence herbicidal evaluation, GALAP; assay type: in vivo, Galium aparine; conditions: preemergence
# Outline: as §2
# AMBEL Ragweed, Common [4] = assay: Postemergence herbicidal evaluation, AMBEL; assay type: in vivo, Ambrosia artemisifolia, L.; conditions: postemergence spray, rated about two-three weeks after treatment
# Outline: as §1
# [5] = system: TRZAWR Wheat, Winter, cv Riband; assay: Preemergence herbicidal evaluation, TRZAWR; assay type: in vivo, Triticum aestivum; conditions: preemergence
# Outline: as §2
# [6] = system: IPOHE Morningglory, Ivyleaf; assay: Preemergence herbicidal evaluation, IPOHE; assay type: in vivo, Ipomoea hederacea, (L.) Jacq.; conditions: preemergence
# Outline: as §2
# SETVI Foxtail, Green = assay: Preemergence herbicidal evaluation, SETVI; assay type: in vivo, Setaria viridis, (L.) Beau; conditions: preemergence
# Outline: as §2
# ZEAMX Corn, Field [7] = assay: Preemergence herbicidal evaluation, ZEAMX; assay type: in vivo, Zea mays, L. (Sammel-Bezeichnung); conditions: preemergence
# Outline: as §2
# ECHOG Barnyardgrass = assay: Preemergence herbicidal evaluation, ECHOG; assay type: in vivo, Echinochloa crus-galli, (L.) Beau; conditions: preemergence
# Outline: as §2
# [8] = system: CHEAL Lambsquarters, Common; assay: Preemergence herbicidal evaluation, CHEAL; assay type: in vivo, Chenopodium album, L.; conditions: preemergence
# Outline: as §2
# GALAP Galium [9] = assay: Postemergence herbicidal evaluation, GALAP; assay type: in vivo, Galium aparine; conditions: postemergence spray, rated about two-three weeks after treatment
# Outline: as §1
compound,measurement,setting,value
COc1ccc(C)c(-n2nnc3cc(F)c(-n4c(=O)cc(C(F)(F)F)n(C)c4=O)cc32)c1 [Example 22],Postemergence herbicidal rating ZEAMX,"ZEAMX Corn, Field [1]; 0.008 kg/ha",4.5
same,Postemergence herbicidal rating ZEAMX,"ZEAMX Corn, Field [1]; 0.016 kg/ha",4.5
same,Postemergence herbicidal rating ZEAMX,"ZEAMX Corn, Field [1]; 0.032 kg/ha",4.0
same,Postemergence herbicidal rating ZEAMX,"ZEAMX Corn, Field [1]; 0.062 kg/ha",4.5
same,Postemergence herbicidal rating ABUTH,ABUTH Velvetleaf; 0.008 kg/ha,9.0
same,Postemergence herbicidal rating ABUTH,ABUTH Velvetleaf; 0.016 kg/ha,9.0
same,Postemergence herbicidal rating ABUTH,ABUTH Velvetleaf; 0.032 kg/ha,9.0
same,Postemergence herbicidal rating ABUTH,ABUTH Velvetleaf; 0.062 kg/ha,9.0
same,AMBEL herbicidal rating,"AMBEL Ragweed, Common [2]; rate 0.016 kg/ha",0.0
same,AMBEL herbicidal rating,"AMBEL Ragweed, Common [2]; rate 0.032 kg/ha",0.0
same,AMBEL herbicidal rating,"AMBEL Ragweed, Common [2]; rate 0.062 kg/ha",0.0
same,AMBEL herbicidal rating,"AMBEL Ragweed, Common [2]; rate 0.125 kg/ha",0.0
same,GALAP herbicidal rating,GALAP Galium [3]; rate 0.016 kg/ha,0.0
same,GALAP herbicidal rating,GALAP Galium [3]; rate 0.032 kg/ha,0.0
same,GALAP herbicidal rating,GALAP Galium [3]; rate 0.062 kg/ha,0.0
same,GALAP herbicidal rating,GALAP Galium [3]; rate 0.125 kg/ha,0.0
same,Postemergence herbicidal rating AMBEL,"AMBEL Ragweed, Common [4]; 0.008 kg/ha",0.0
same,Postemergence herbicidal rating AMBEL,"AMBEL Ragweed, Common [4]; 0.016 kg/ha",0.0
same,Postemergence herbicidal rating AMBEL,"AMBEL Ragweed, Common [4]; 0.032 kg/ha",2.0
same,Postemergence herbicidal rating AMBEL,"AMBEL Ragweed, Common [4]; 0.062 kg/ha",3.0
same,TRZAWR herbicidal rating,[5]; rate 0.016 kg/ha,0.0
same,TRZAWR herbicidal rating,[5]; rate 0.032 kg/ha,1.0
same,TRZAWR herbicidal rating,[5]; rate 0.062 kg/ha,2.0
same,TRZAWR herbicidal rating,[5]; rate 0.125 kg/ha,4.0
same,IPOHE herbicidal rating,[6]; rate 0.016 kg/ha,0.0
same,IPOHE herbicidal rating,[6]; rate 0.032 kg/ha,0.0
same,IPOHE herbicidal rating,[6]; rate 0.062 kg/ha,0.0
same,IPOHE herbicidal rating,[6]; rate 0.125 kg/ha,0.0
same,SETVI herbicidal rating,"SETVI Foxtail, Green; rate 0.016 kg/ha",0.0
same,SETVI herbicidal rating,"SETVI Foxtail, Green; rate 0.032 kg/ha",2.0
same,SETVI herbicidal rating,"SETVI Foxtail, Green; rate 0.062 kg/ha",7.0
same,SETVI herbicidal rating,"SETVI Foxtail, Green; rate 0.125 kg/ha",9.0
same,ZEAMX herbicidal rating,"ZEAMX Corn, Field [7]; rate 0.016 kg/ha",0.0
same,ZEAMX herbicidal rating,"ZEAMX Corn, Field [7]; rate 0.032 kg/ha",2.0
same,ZEAMX herbicidal rating,"ZEAMX Corn, Field [7]; rate 0.062 kg/ha",4.0
same,ZEAMX herbicidal rating,"ZEAMX Corn, Field [7]; rate 0.125 kg/ha",6.0
same,ECHCG herbicidal rating,ECHOG Barnyardgrass; rate 0.016 kg/ha,0.0
same,ECHCG herbicidal rating,ECHOG Barnyardgrass; rate 0.032 kg/ha,0.0
same,ECHCG herbicidal rating,ECHOG Barnyardgrass; rate 0.062 kg/ha,2.0
same,ECHCG herbicidal rating,ECHOG Barnyardgrass; rate 0.125 kg/ha,7.0
same,CHEAL herbicidal rating,[8]; rate 0.016 kg/ha,9.0
same,CHEAL herbicidal rating,[8]; rate 0.032 kg/ha,9.0
same,CHEAL herbicidal rating,[8]; rate 0.062 kg/ha,9.0
same,CHEAL herbicidal rating,[8]; rate 0.125 kg/ha,9.0
same,Postemergence herbicidal rating GALAP,GALAP Galium [9]; 0.008 kg/ha,0.0
same,Postemergence herbicidal rating GALAP,GALAP Galium [9]; 0.016 kg/ha,0.0
same,Postemergence herbicidal rating GALAP,GALAP Galium [9]; 0.032 kg/ha,3.0
same,Postemergence herbicidal rating GALAP,GALAP Galium [9]; 0.062 kg/ha,5.0
